Experimental data as given in PubChem BioAssay AID1996.
≈ marks a conversion by molar mass, not a printed value.

details: buffer; pH 7.4; 200.0 µM

Compound	solubility kinetic [µg/mL]
OCCCNCc1ccc(N(c2ccccc2)c2ccccc2)cc1	39 (≈ 117 µM)
CCOC(=O)C(=CNc1ccc(Oc2cncc(Cl)c2)nc1)C(=O)OCC	5 (≈ 12.8 µM)
CSC1=NC2(CCCCC2)CC12C=CC(=O)C=C2	36.2 (≈ 138 µM)
Cc1cc(NC(=O)CSc2nncn2-c2ccccc2)no1	> 47.3
Cc1ccc(S(=O)(=O)CC(=O)Nc2cccc(C)n2)cc1	11.5 (≈ 37.8 µM)
Cc1cccc(OCC(=O)O/N=C(\N)c2ccncc2)c1	> 42.8
COc1cc2ncnc(NCc3ccco3)c2cc1OC	38.9 (≈ 136 µM)
COc1cc(C(=O)NCCOc2ccccc2C)cc(OC)c1OC	48.8 (≈ 141 µM)
O=C(NC1CCCCCCC1)c1ccc(Br)o1	37.2 (≈ 124 µM)
CC#CC(=O)NC1CCCN(C2Cc3ccccc3C2)C1 (configuration not stated)	> 42.4
CCn1cc(CCCC(=O)NCc2ccc(OC)cc2)c2ccccc21	10.5 (≈ 30 µM)
NC(=O)COC(=O)C1CSC2(c3ccc(F)cc3)CCC(=O)N12 (configuration not stated)	49.4 (≈ 146 µM)
O=C(Nc1ccccc1F)N1CCCC1c1cccnc1 (configuration not stated)	40.9 (≈ 143 µM)
CCOc1ccc(N2CC(C(=O)NC3CCCCCC3)CC2=O)cc1 (configuration not stated)	15.2 (≈ 44.1 µM)
Cc1ccc(NS(=O)(=O)c2ccc3c(c2)N(C)CCO3)cc1	36.1 (≈ 113 µM)
Cl.O=C(NN1C(=O)CSC1=S)c1cccnc1	> 43.5
CCc1c(C)nc(N2CCN(c3ccc(OC)cc3)CC2)[nH]c1=O	5.5 (≈ 16.7 µM)
O=C(Nc1c(S(=O)(=O)c2ccccc2)csc1Br)c1ccccc1Cl	42.9 (≈ 93.9 µM)
COCCNC(=O)CN1C(=O)NC2(CCCCCC2)C1=O	> 44.6
CCCCn1nc(CC(=O)NCCN(CC)CC)c2ccccc2c1=O	> 53.8
S=C(NC1CCCCC1)N1CCc2[nH]c3ccccc3c2C1	1.3 (≈ 4.15 µM)
Cc1cc2cc(CNC(=S)NCc3ccccc3)ccc2n1C	1.8 (≈ 5.56 µM)
CN1/C(=C\C=O)C(C)(C)c2ccccc21	> 30.2
CC(C)Cc1ccc(C(C)NC(=O)c2ccc(=O)[nH]c2)cc1 (configuration not stated)	10 (≈ 33.5 µM)

Compound	solubility kinetic [µg/mL]
CCNC(=O)c1ccc(C23CC4CC(CC(C4)C2)C3)o1	< 0.6
Cc1ccc2c(c1)C1CN(C)CCC1N2C(=S)Nc1ccc(OC(F)F)cc1 (configuration not stated)	44.8 (≈ 111 µM)
CCSc1nc2sccc2c(=O)n1-c1ccccc1	27.3 (≈ 94.7 µM)
COc1ccccc1OCCC(=O)NCc1ccc2c(c1)OCO2	45.1 (≈ 137 µM)
CC(C)c1cc(NCCOCCO)n2c(nc3ccccc32)c1C#N	7.8 (≈ 23 µM)
CC(C)CNC(=O)COCc1cc(-c2ccc3c(c2)OCO3)on1	> 49.9
S=C(NCCCn1ccnc1)Nc1cccc(Cl)c1	> 44.2
CCc1ccc(C(=O)NC(CCSC)C(=O)OC)cc1 (configuration not stated)	> 44.3
O=C(COC(=O)c1ccc(F)c(S(=O)(=O)N2CCOCC2)c1)NCc1ccc2c(c1)OCO2	53.8 (≈ 112 µM)
COc1ccc(N2CCN(C(=O)Cc3coc4cc(C)ccc34)CC2)cc1	25.9 (≈ 71.1 µM)
Cc1ccc(-c2c(C#N)c(N)nc3c2CCCC3)o1	4.1 (≈ 16.2 µM)
COc1ccc(C(=O)Cn2cc([N+](=O)[O-])nc2C)cc1	13.5 (≈ 49 µM)
Cc1ccc(NC(=O)C(=O)NCCc2c[nH]c3ccccc23)c(C)c1	0.4 (≈ 1.19 µM)
CCN(CC(=O)Nc1cc(Cl)ccc1C)C(=O)C1CC1	> 44.2
COc1ccc2c(c1)CCC(C)N2C(=O)C(=O)c1c[nH]c2ccccc12 (configuration not stated)	0.6 (≈ 1.72 µM)
COc1ccc(NC(=O)COc2cccnc2[N+](=O)[O-])cc1OC	> 50
CCOc1cc(/C=C(\C#N)C(=O)Nc2ccccn2)ccc1O	> 46.4
CC1(C)CNc2cc(N)ccc2S1	26.3 (≈ 135 µM)
Cc1cnc(NC(=O)CC(C)c2ccccc2)s1 (configuration not stated)	3 (≈ 11.5 µM)
CC(CCN1CCN(CCO)CC1)c1ccccc1 (configuration not stated)	23.1 (≈ 88 µM)
CC(=O)OC1OCCOC1NC(=S)Nc1ccc(C)cc1 (configuration not stated)	44.4 (≈ 143 µM)
O=S(=O)(c1ccc(F)cc1)N1CN2CCN(C2)C1	> 40.7
O=C(O)/C=C/C(=O)NCC1CCC(CNC(=O)/C=C/C(=O)O)CC1 (configuration not stated)	> 50.8
CCSc1ccc(/C(N)=N/OC(=O)c2cccs2)cn1	0.3 (≈ 0.976 µM)

Compound	solubility kinetic [µg/mL]
CC(NC(=O)Cc1ccsc1)c1ccc(F)cc1 (configuration not stated)	> 39.5
O=C(O)/C=C/C(=O)Nc1ccc(Oc2ccccc2)cc1	> 42.5
Cc1occc1C(=O)Nc1cccc([N+](=O)[O-])c1C	36 (≈ 138 µM)
Cc1cccc(-c2noc(CNC(=O)c3ccco3)n2)c1	42.5 (≈ 150 µM)
CCc1cn(C2CC(O)C(CO)O2)c(=O)[nH]c1=O (configuration not stated)	> 38.4
CCOc1ccc2oc(C(=O)N3CC(C)OC(C)C3)c(C)c2c1 (configuration not stated)	41.6 (≈ 131 µM)
O=C(Nc1ccc(S(=O)(=O)NC2=NCCCCC2)cc1)c1ccc(Cl)c([N+](=O)[O-])c1	22 (≈ 48.8 µM)
Cc1ccc(NC(=O)C2=C(C(=O)O)CCCC2)cc1F	26.9 (≈ 97 µM)
Cc1ccc(N2N=C(C(=O)O)CCC2=O)cc1Cl	> 40
CC1CN(C(=O)COC(=O)c2ccc(N(C)C)cc2)CC(C)O1 (configuration not stated)	> 48.1
CCOC(=O)C1=C(COC(=O)[C@@H](NC(=O)c2cccc(C)c2)C(C)C)NC(=O)NC1C (some centres not stated)	> 64.7
CCOC(=O)C1=C(C)NC2=C(C(=O)c3ccccc32)C1c1ccc([N+](=O)[O-])o1 (configuration not stated)	7.4 (≈ 19.5 µM)
O=c1[nH]c(=O)n(-c2ccc(F)cc2)c(O)c1/C=C1\C=Nc2ccccc21	1.9 (≈ 5.44 µM)
CC(=O)Nc1c(C(=O)Nc2ccc3c(c2)OCO3)oc2ccccc12	3.2 (≈ 9.46 µM)
Cc1ccc(NC(=O)COC(=O)Cn2ccc(=O)[nH]c2=O)cc1C	> 49.7
COc1ccc(NC(=O)NC2CCCc3ccccc32)c(OC)c1 (configuration not stated)	1 (≈ 3.06 µM)
COc1ccc(Br)cc1/C=C/C(=O)OCC(=O)NCCc1ccc(S(N)(=O)=O)cc1	13.8 (≈ 27.7 µM)
Cc1ccc(C)c(OCC(=O)Nc2ccccc2C(=O)NC2CC2)c1	0.9 (≈ 2.66 µM)
O=C(NCCSCc1c(F)cccc1Cl)Nc1ccccc1	2.5 (≈ 7.38 µM)
O=C(NCCSCc1ccco1)c1ccc(=O)[nH]c1	38.2 (≈ 137 µM)
Cc1ccc(C(=O)CCC(=O)NC2=NCCS2)cc1	10.8 (≈ 39.1 µM)
Cc1cc(C(=O)NCC2COc3ccccc3O2)c2ccccc2n1 (configuration not stated)	9.3 (≈ 27.8 µM)
Cn1cccc1C(=O)NC(=O)COC(=O)CCNS(=O)(=O)c1ccc(Cl)cc1	13.8 (≈ 32.3 µM)
CCc1ccc(NC(=O)C(C)OC(=O)/C=C/c2ccc(O)c(OC)c2)cc1 (configuration not stated)	4.1 (≈ 11.1 µM)

Compound	solubility kinetic [µg/mL]
COc1ccc(NC(=O)Cn2c(=O)oc3ccccc32)cc1	35 (≈ 117 µM)
O=C(NCCCCNC(=O)c1ccc(F)cc1)c1ccc(F)cc1	3.9 (≈ 11.7 µM)
COc1cc([N+](=O)[O-])ccc1NC(=O)NCc1ccccn1	> 45.3
O=C(O)CC1(CC(=O)NCc2cc(F)cc3c2OCOC3)CCCCC1	> 54.8
Cc1[nH]c(=S)c(C#N)c(C)c1Cc1ccc(Cl)cc1Cl	2.2 (≈ 6.81 µM)
Cc1ccc(S(=O)(=O)/N=C(/Nc2ccccc2C)c2ccccc2)cc1	39.8 (≈ 109 µM)
Cc1ccccc1OCCC(=O)Nc1ccccc1C(=O)N1CCCCC1	52.7 (≈ 144 µM)
Cc1ccc(-c2nc(N)s[n+]2-c2ccccc2)cc1.[Br-]	21
O=C(c1ccc(NS(=O)(=O)c2ccccc2)cc1)N1CCOCC1	> 52
CCN1C(=O)CSC1=Nc1ccc(Cl)c(Cl)c1	9.8 (≈ 33.9 µM)
COc1ccc(CCC(C)NCc2ccccc2OC)cc1 (configuration not stated)	32 (≈ 107 µM)
O=C(Nc1ccc(Cl)cc1Cl)c1cc2ccccc2o1	< 0.7
Cc1ccc(C(C[N+](=O)[O-])Sc2ccc(N)cc2)cc1 (configuration not stated)	21.4 (≈ 74.2 µM)
Cc1nc(NC(=S)NC(=O)c2ccco2)sc1C(=O)N(C)C	> 50.8
CC(C)N(Cc1ccccc1)C(=O)c1ccc2nsnc2c1	38.2 (≈ 123 µM)
Cc1cc(NS(=O)(=O)c2c(C)c(C)cc(C)c2C)no1	> 44.2
CCNC(=S)N1CCN(C(=O)C(Cc2ccccc2)NC(C)=O)CC1 (configuration not stated)	> 54.4
N#Cc1ccc(-c2cn3c(n2)SCC3)cc1	> 34.1
COc1ccccc1C(=O)NCCC(=O)NCC1CCCCC1	47.4 (≈ 149 µM)
COc1cc(OC)c(C(=O)Nc2cccc3ccccc23)cc1OC	< 0.7
COc1ccc(C(=O)CCNc2ccc(F)cc2)cc1	< 0.6
Cc1ccc(OC(C)C(=O)N(C)Cc2ccccc2)c([N+](=O)[O-])n1 (configuration not stated)	46.9 (≈ 142 µM)
Oc1ccc2ccccc2c1CN1CCCC1	32 (≈ 141 µM)
O=C(NCC1CCCO1)C1CC(=O)N(c2cccc(Cl)c2)C1 (configuration not stated)	46.6 (≈ 144 µM)

Compound	solubility kinetic [µg/mL]
O=C(O)CC(NC(=O)CCc1ccccc1)c1ccc(Cl)cc1 (configuration not stated)	44.5 (≈ 134 µM)
O=C(NCCc1ccccc1)c1ccc(NC(=O)c2cccnc2)cc1	4.3 (≈ 12.4 µM)
COc1cccc(C2Nc3ccccc3NC3=C2C(=O)CC(C)(C)C3)c1 (configuration not stated)	40.2 (≈ 115 µM)
COCCn1c(=S)[nH]c2sc3c(c2c1=O)CCCC3	> 44.5
O=C1CCc2cc(S(=O)(=O)Nc3ccccc3F)ccc2N1	> 48.1
COC(=O)c1c(C)oc(C)c1S(=O)(=O)NCc1ccc(Cl)cc1	5 (≈ 14 µM)
Cc1cc(C)cc(CN2C(=O)NC3(CCCCCC3)C2=O)c1	18.1 (≈ 60.3 µM)
Brc1ccccc1CN1CCC(Cc2ccccc2)CC1	2.6 (≈ 7.55 µM)
CCCCCCC(Cl)(Cn1ccnc1)c1ccccc1.O=[N+]([O-])O (configuration not stated)	35.3
COc1ccc(CNC(=O)COC(=O)C2CC2C)cc1OC (configuration not stated)	> 46.1
CC(C)C(=O)Nc1ccc2oc(=O)ccc2c1	33.5 (≈ 145 µM)
NC(=O)C1CCN(c2oc(-c3cccs3)nc2S(=O)(=O)c2ccc(Br)cc2)CC1	17.6 (≈ 35.5 µM)
Cc1ccc(NC(=O)CCc2ccc(C)o2)cc1	21.1 (≈ 86.7 µM)
OCc1c[nH]c(=S)n1CCOc1cccc(C(F)(F)F)c1	5.5 (≈ 17.3 µM)
Cc1cc([N+](=O)[O-])ccc1NC(=S)NC1CCCC1	21.9 (≈ 78.4 µM)
CC1(C)CC(NS(=O)(=O)c2ccc(F)cc2)CC(C)(C)N1	47.1 (≈ 150 µM)
COC(=O)c1ccc(C2NC(=O)c3ccccc3O2)cc1 (configuration not stated)	5.2 (≈ 18.4 µM)
O=C(Nc1cc2c3c(c1)CC(=O)N3CCC2)c1ccc(Cl)cc1	6.6 (≈ 20.2 µM)
CC1(C(=O)OCC(=O)Nc2ccc(S(=O)(=O)N3CCOCC3)cc2)CC1(Cl)Cl (configuration not stated)	60.5 (≈ 134 µM)
O=C(Nc1ccccc1)N1CCc2c([nH]c3ccccc23)C1C(F)(F)F (configuration not stated)	1.8 (≈ 5.01 µM)
O=C(c1cccnc1)N1CCN(c2ccc3ccccc3n2)CC1	39.3 (≈ 123 µM)
